Reference: patent US20040092568A1, “Methods for the treatment, prevention and management of macular degeneration” (priority 2002, published 2004)

What was measured:
[1] = system: patients with macular degeneration; assay: Macular degeneration clinical study (adjuvant to verteporfin photodynamic therapy); type: in vivo; settings: about 300 mg/day for 20 weeks as adjuvant to verteporfin photodynamic therapy
Method: Forty patients with macular degeneration are divided into two groups. The first group receives conventional treatment for closing the leaking choroidal vessels (characteristic of this disease) by photodynamic therapy with verteporfin (see for example Ophthalmol. 117:1329-1345 (1999). The second group receives the same conventional therapy with verteporfin with 1-(5-(1H-1,2,4-triazol-5-yl)(1H-indazol-3-yl))-3-(2-piperidylethoxy)benzene at about 300 mg/day as an adjuvant for 20 weeks.
The first group, without 1-(5-(1H 1,2,4-triazol-5-yl)( 1 H-indazol-3-yl))-3-(2-piperidylethoxy)benzene, however will experience progressive reperfusion of the ablated vessels several weeks after treatment. Progressive visual loss follows which requires the photodynamic therapy to be repeated.

[2] = Brain-blood plasma distribution in vivo; parameters: species or system Sprague-Dawley rats; settings: rat, 10 mg/kg intravenously, 2 hr post-dose
Method: 5-Amino-anthra(9,1-cd)isothiazol-6-one was administered intravenously (10 mg/kg) into the veins of Sprague-Dawley rats. After 2 hr, blood samples were obtained from the animals and their vascular systems were perfused with approximately 100 mL of saline to rid their brains of blood. The brains were removed from the animals, weighed, and homogenized in a 50 mL conical tube containing 10 equivalents (w/v) of methanol/saline (1:1) using a Tissue Tearer (Fischer Scientific). The homogenized material was extracted by adding 600 μL of cold methanol to 250 μL of brain homogenate vortexed for 30 sec and subjected to centrifugation for 5 min. After centrifugation, 600 μL of the resulting supernatant was transferred to a clean tube and evaporated at room temperature under reduced pressure to provide a pellet. […] The brain homogenate analysis samples, plasma analysis samples, and standard analysis samples were analyzed and compared using HPLC by injecting 100 μL of a sample onto a 5 μm C-18 Luna column (4.6 mm×150 mm, commercially available from Phenomenex of Torrance, Calif.) and eluting at 1 mL/min with a linear gradient of 30% aqueous acetonitrile containing 0.1% trifluoroacetic acid to 90% aqueous acetonitrile containing 0.1% trifluoroacetic acid over 8 minutes and holding at 90% aqueous acetonitrile containing 0.1 % trifluoroacetic acid for 3 min. with absorbance detection at 450 nm. […]

[3] = system: rat ventral mesencephalan neurons; assay: [3H]Dopamine cell culture assay (6-OHDA neurotoxicity); type: cell-based; settings: 6-OHDA 30 μM, uptake 22 hours later
Method: Cultures of dopaminergic neurons were prepared according to a modification of the procedure described by Raymon and Leslie (J. Neurochem. 62:1015-1024, 1994). Time-mated pregnant rats were sacrificed on embyronic day 14-15 (crown rump length 11-12 mm) and the embryos removed by cesarean section. The ventral mesencephalon, containing the dopaminergic neurons, was dissected from each embryo. Tissue pieces from approximately 48 embryos were pooled and dissociated both enzymatically and mechanically. An aliquot from the resulting cell suspension was counted and the cells were plated in high glucose DMEM/F12 culture medium with 10% fetal bovine serum at a density of 1×10^5 cells/well of a Biocoat poly-D-lysine-coated 96-well plate. The day following plating was considered 1 day in vitro (DIV). Cells were maintained in a stable environment at 37° C., 95% humidity, and 5% CO2. A partial medium change was performed at 3 DIV. […]
[^3H]Dopamine uptake is used as a measure of the health and integrity of dopaminergic neurons in culture (Prochiantz et al., PNAS 76: 5387-5391, 1979). […] Briefly, cells treated with 6-OHDA in the presence and absence of 5-amino-anthra(9, 1-cd)isothiazol-6-one were assessed in the uptake assay 22 hrs after exposure to 6-OHDA. […] Radioactivity was removed and the cultures were washed 3x with ice cold PBS. […]

[4] = Solubility in aqueous media; type: physicochemical

Row | brain-drug concentration [2] | solubility in aqueous media [4] | SMILES | effect on neovascular cascade / duration of photodynamic therapy effect [1] | protection of dopaminergic neurons from 6-OHDA ([3H]dopamine uptake) [3]
1 | – | – | c1cc(OCCC2CCCCN2)cc(-c2n[nH]c3ccc(-c4ncn[nH]4)cc23)c1 (stereo not shown) [1-(5-(1H-1,2,4-triazol-5-yl)(1H-indazol-3-yl))-3-(2-piperidylethoxy)benzene] | neovascular cascade is sufficiently hindered | –
2 | approximately 65 nmole/g | limited solubility | Nc1ccc2snc3c2c1C(=O)c1ccccc1-3 [5-amino-anthra(9,1-cd)isothiazol-6-one] | – | protects rat ventral mesencephalan neurons from the toxic effects of 6-OHDA
